# In patent publication US20220370553A1, “PREBIOTIC-INDUCED ANTI-TUMOR IMMUNITY” (Sanford Burnham Prebys Medical Discovery Institute, priority 2019, published 2022):
# What was measured:
# [1] = test system: intestinal epithelial cells; experiment: qRT-PCR of inflammatory mediators in intestinal epithelial cells in vivo; design: species or system C57BL/6 mice; details: mucin 3% in drinking water, naïve mice, 2 weeks
# From the text: FIG. 15 illustrates effects of mucin and inulin on expression of inflammatory mediators by intestinal epithelial cells in vivo. qRT-PCR data are shown for mRNA levels of the indicated inflammatory mediators in intestinal epithelial cells from mucin or inulin-treated mice (n=4). Data are representative of two independent experiments. Graphs show the mean s.e.m. *P<0.05, **P<0.005, one-way ANOVA with Tukey's correction.
# Isolation of intestinal epithelial cells. A 10 cm section of mouse small intestine was opened longitudinally, minced, washed in 150 mM NaCl containing 1 mM DTT, and then resuspended in dissociation buffer (130 mM NaCl, 10 mM EDTA, 10 mM Hepes [pH 7.4], 10% FCS, and 1 mM DTT). The sections were incubated at 37° C. for 30 min with vigorous shaking to release the epithelial cells from the lamina propria. The epithelial cell suspension was then carefully aspirated, centrifuged, and washed in ice-cold PBS.
# The effect of mucin and inulin on intestinal epithelial cells was evaluated in vivo. To this end, mucin (3% in drinking water) or inulin (15% in chow) were administered to naïve C57BL/6 mice for 2 weeks. Intestinal epithelial cells were isolated from small intestine and were assessed for the level of select cytokines and chemokines that are implicated in the activation of the immune response and anti-tumor immunity.
# fecal microbiota = experiment: 16S rRNA amplicon sequencing of fecal microbiota, YUMM1.5 melanoma model; type: in vivo, C57BL/6 mice; details: YUMM1.5 model, TABLE 3
# Experimental: Bacterial DNA extraction and 16S library preparation. […] Mouse fecal pellets were frozen on dry ice, and stored at −80° C. Bacterial DNA was extracted using the QIAmp Fast DNA Stool Mini Kit (Qiagen). To ensure efficient cell lysis, a 5-min bead-beating step using a Mini-Beadbeater-16 was included (Biospec Products, OK, USA). Library preparation for the Illumina MiSeq platform was performed by amplification of the V3-V4 region of the bacterial 16S ribosomal DNA gene using
# C. Adapter and barcode sequences for dual indices were used as described by Illumina. PCR clean up steps were performed with QIAquick 96-PCR Clean up kit (Qiagen, Germany), and library quantification was performed using a KAPA Library Quantification Kit for Illumina platforms (KAPA Biosystems, MA, USA). An Experion Automated Gel Electrophoresis System (Bio-Rad, CA, USA) was used to measure the DNA concentration and purity of the pooled libraries. The 16S libraries were sequenced at Novagene (Beijing, China) and the SBP sequencing Core.
# 16S sequencing data processing. […] OSUs mapped to the same strains are grouped together (adding read counts) if percentage similarities are within 3%. Read counts are converted into relative abundance as described in HiMap. […]
# Yumm1.5 tumors = experiment: Flow cytometry of tumor-infiltrating immune cells in Yumm1.5 tumors; type: in vivo, C57BL/6 mice; details: 20 days following tumor inoculation
# From the text: FIG. 2B, Quantification of tumor-infiltrating effector (CD44hi) CD4+, CD8+ and CD45+ T cells from mice treated as in FIG. 2A (n=10). FIG. 2C, Quantification of tumor-infiltrating, IFN-g-producing CD4+ T cells from mice treated as in FIG. 2A (n=10). FIG. 2D, Quantification of tumor-infiltrating total DCs and subsets in mice treated as in FIG. 2A (n=10). FIG. 2E, MFI of MHC class I and MHC class II on DCs from the tumors of mice treated as in FIG. 2A (n=10). […] Graphs show the mean s.e.m. *P<0.05, **P<0.005, ***P<0.001,****P<0.0001 by two-way ANOVA with Tukey's correction (A) and by one-way ANOVA with Tukey's correction (B-E).
# Tumor digestion. Tumors were excised, minced, and digested with 1 mg/ml collagenase D (Roche) and 100 μg/ml DNase I (Sigma) at 37° C. for 1 h. Digests were then passed through a 70-μm cell strainer to generate a single-cell suspension. The cells were washed twice with PBS containing 2 mM EDTA, and then stained for flow cytometry.
# Flow cytometry. Tumor-derived single-cell suspensions were washed twice with FACS staining buffer, fixed for 15 min with 1% formaldehyde in PBS, washed twice, and resuspended in FACS staining buffer. For intracellular cytokine staining, cells were resuspended in complete RPMI-1640 (containing 10 mM HEPES, 1% non-essential amino acids and L-glutamine, 1 mM sodium pyruvate, 10% heat-inactivated fetal bovine serum (FBS), and antibiotics) supplemented with 50 U/mL IL-2 (NCI), […] brefeldin A (BFA, Sigma), and incubated with phorbol myristate acetate (10 ng/ml) and ionomycin (0.5 μg/ml) at 37° C. The cells were then fixed and permeabilized using a Cytofix/Cytoperm Kit (BD Biosciences) before staining. Antibodies to the following proteins were used: CD45.2 (104), CD8a (53-6.7), CD4 (GK1.5), CD44 (IM7), TNF-α (MP6-XT22), IFN-γ (XMG1.2), CD11c (N418), CD11b (M1/70), MHC class II (M5/114.15.2), PDCA (129c1), and B220 (RA3-6B2) from BioLegend, and antibodies to IL-2 (JES6-5H4) and MHC class I (AF6-88.5.5.3) from eBioscience. All data were collected on an LSRFortessa (BD Biosciences) and analyzed using FlowJo Software (Tree Star).
# [2] = test system: N-Ras mutant melanoma tumor cells (MaNRAS1); experiment: Growth of N-Ras mutant melanoma tumors with prebiotics with or without MEKi; type: in vivo, C57BL/6 mice; details: in the absence of MEKi; mucin 3% in water or inulin 15% in chow
# Experimental: FIG. 7A C57BL/6 mice were injected (s.c.) with NRAS^Q61K mouse melanoma cells (1×10^6) (n=10). The mice were administered with either a control diet alone, or one supplemented with mucin (3%) in drinking water or inulin (15%) in chow starting 14 days prior to tumor inoculation. When tumors reached a volume of 10-20 mm^2, mice were treated with MEKi (PD325901) administered by gavage (10 mg/kg, daily), alone or in combination with inulin or mucin, as indicated. Tumor volume was assessed every 4 days. […] Data are representative of two independent experiments. Graphs show the mean±s.e.m. *P<0.05, **P<0.005, ***P<0.001, ****P<0.0001 by two-way ANOVA with Tukey's correction (A) or one-way ANOVA with Tukey's correction (B-D).
# Animals and tumor models. […] Male 6-8-week-old mice were used for all experiments. […] All mice were fed an autoclaved chow diet ad libitum (LabDiet 5K67, Purina Foods). […] Mouse selection for experiments was not formally randomized or blinded. For tumor growth experiments, mice were injected subcutaneously (s.c.) with 1×10^6 tumor cells. Tumor size was measured twice a week for calculation of tumor volume. Tumors were weighed at the time of excision.
# Mucin and inulin treatment. For mucin treatment, C57BL/6 mice were subjected to control or water supplemented with 3% mucin (Lee Biosolutions) prior to (14 days) and during tumor inoculation. Water was changed every other day. For inulin treatment, mice were received a diet (TD. 94048, AIN-93M, Purified Diet, ENVIGO) enriched with long-chain inulin by substituting all of sucrose and 5% of corn starch in the control diet or a modified diet (TD. 160256, Modified AIN-93M, Diet w 15% inulin, ENVIGO) prior to (14 days) and during tumor inoculation. Diets were changed 2 times a week.
# Experiments were conducted to determine whether prebiotics impacted the effectiveness of MEK inhibitor (MEKi) treatment on tumor growth control and treatment resistance.
# [3] = test system: SW1 (syngeneic NRAS mutant melanoma) cells; experiment: SW1 melanoma growth with mucin and/or inulin; type: in vivo, C3H/HeOuJ mice; details: 3% mucin in drinking water and/or 15% inulin diet from 14 days prior to inoculation
# From the text: FIG. 17A Growth of SW1 mouse melanoma cells in C3H/HeOuJ mice that were fed with 0 or 3% mucin in drinking water and/or a diet enriched with 15% inulin, starting 14 days prior to (and continued after) tumor inoculation (n=10). FIG. 17B. […] Graphs show the mean±s.e.m. *P<0.05, **P<0.005,***P<0.001, ****P<0.0001 by two-way ANOVA with Tukey's correction.
# Animals and tumor models. All experimental animal procedures were approved by the Institutional Animal Care and Use Committee of Sanford Burnham Prebys Medical Discovery Institute (SBP) and complied with all relevant ethical regulations for animal testing and research. C57BL/6 mice were obtained from Sanford Burnham Prebys Medical Discovery Institute. […] C3H/HeOuJ mice were purchased from Jackson laboratories. Male 6-8-week-old mice were used for all experiments. […] All mice were fed an autoclaved chow diet ad libitum (LabDiet 5K67, Purina Foods). […] Mouse selection for experiments was not formally randomized or blinded. For tumor growth experiments, mice were injected subcutaneously (s.c.) with 1×10^6 tumor cells. Tumor size was measured twice a week for calculation of tumor volume. Tumors were weighed at the time of excision.
# Mucin and inulin treatment. For mucin treatment, C57BL/6 mice were subjected to control or water supplemented with 3% mucin (Lee Biosolutions) prior to (14 days) and during tumor inoculation. […]
# Bifidobacterium spp. = experiment: Anaerobic fecal cultures with 1% prebiotic, 16S rDNA quantification; type: cell-based, human; details: in two of these cultures
# Experimental: (§1) Fecal samples derived from 12 healthy human subjects were cultivated in the presence or absence of 1% prebiotic. 16S rDNA sequences corresponding to Bifidobacterium, Bacteroides and Akkermansia muciniphila were quantified. Data are representative of three independent experiments. Graphs show the mean±s.e.m. *P<0.05, **P<0.005, ***P<0.001, ****P<0.0001 by one-way ANOVA with Tukey's correction.
# (§2) Anaerobic fecal cultures. […] Anaerobic cultures (9% H2, 81% N2) were grown statically for 3-4 days at 37° C. and grown to approximate saturation.
# (§3) Chemically-defined medium (CDM). CDM contains 50 mM HEPES, 2.2 mM KH2PO4, 10 mM Na2HPO4, 60 mM NaHCO3, 4 mM of each amino acid, except leucine (15 mM), 10 mL ATCC, Trace Mineral Supplement. CDM contained nucleoside bases (100 mg/L), inosine, xanthine, adenine, guanine, cytosine, thymidine and uracil (400 mg/L). CDM contained choline (100 mg/L), ascorbic acid (500 mg/L), lipoic acid (2 mg/L), hemin (1.2 mg/L) and myo-inositol (400 mg/L). Resazurin (1 mg/L) was added to visually monitor dissolved oxygen. The pH of the media was adjusted to 7.4.
# (§4) Fecal samples derived from 12 healthy, vegetarian human subjects were cultivated in a chemically-defined medium the presence or absence of 1% prebiotic. Anaerobic cultures (9% H2, 81% N2) were grown statically for 3-4 days at 37° C. and grown to approximate saturation.
# A. muciniphila = experiment: as above; type: cell-based, human; details: in most of the cultures
# Experimental: as §1, §2, §3, §4
substance,measurement,setting,value
mucin,TNF-α mRNA level in intestinal epithelial cells,[1],elevated
same,taxa enriched,fecal microbiota,predominantly enriched taxa with similarity to members of Clostridium cluster XIVa
same,MHC class I and MHC class II on tumor-resident DCs,Yumm1.5 tumors,higher levels
same,dendritic cell subsets including pDCs and CD8a+ conventional DCs in tumors,Yumm1.5 tumors,increased
same,"effector (CD44hi) CD4+ and CD8+ T cells, and CD45+ cells in tumors",Yumm1.5 tumors; compared to control mice,enrichment
same,control of N-Ras mutant tumors,[2],not
same,SW1 tumor growth,[3],attenuated tumor growth
same,Bifidobacterium spp.,Bifidobacterium spp.,not
same,relative abundance of A. muciniphila,A. muciniphila,increased
